How the values were obtained:
MCF-7 cells = experiment: MTT assay, anticancer activity on MCF-7 cells; format: cell-based, human; conditions: 72 h exposure, 0.1-100 µM
Description: The anticancer activity of all the synthesized Ru-NHC complexes (RANHC I-VI) was studied in two human breast cancer cell lines, namely the estrogen receptor positive (ER+) MCF-7 cells and the triple negative MDA-MB-231 cells (ER-, PR-, and HER-2/Neu not overexpressed), and neuroblastoma cells, i.e., SH-SY5Y. First, the cells were exposed for 72 h at different concentrations of the studied complexes (from 0.1 to 100 µM) and then their viability was checked by MTT assay.
The adopted cells (breast cancer MCF-7 and MDA-MB-231 and human mammary epithelial MCF-10A cells) were purchased from American Type Culture Collection (ATCC, Manassas, VA, USA) and cultured as indicated. The mouse embryonic fibroblast BALB/3T3 and neuroblastoma SH-SY5Y were also obtained from American Type Culture Collection (ATCC, Manassas, VA, USA) and cultured in DMEM high glucose supplemented with 100 U mL^−1 penicillin/streptomycin and 10% bovine calf serum (BCS) or 10% fetal bovine serum (FBS), respectively.
MTT assay (Sigma Aldrich (St. Louis, MO, USA)) was used for the in vitro anticancer activity evaluation, as previously reported. The Ru-NHC complexes were employed at different concentrations (0.1–1–10–25–50–100 μM) for 72 h. The IC50 values were calculated from the percent (%) of control using GraphPad Prism 9 (GraphPad Software, La Jolla, CA, USA).

[1] = test system: Staphylococcus aureus (ATCC 23235); experiment: MIC/MBC broth dilution, S. aureus; format: cell-based; conditions: broth dilution, 37 °C, 18 h
Description: One Gram-negative (Escherichia coli (ATCC® 25922TM)) and two Gram-positive bacterial strains (Enterococcus faecalis (ATCC® 19433TM) and Staphylococcus aureus (ATCC® 23235TM)] were used for MIC and MBC values determination, according to CLSI guidelines. MIC represents the lowest concentration of compound inhibiting the visible microbial growth and expressed as μg/mL; MBC is the lowest concentration able to kill the bacteria. Both determinations were performed by the broth dilution method. Bacteria were grown overnight in LB medium (2%), then diluted to a density of […] colony forming units (CFUs) per mL, plated in sterile 96-well microplates, obtaining about 10^5 cells/ well. Increasing concentrations of the Ru-NHC complexes (1, 10, 25, 50, 70, 100 µg/mL) were used. After incubation at 37 °C for 18 h (overnight), bacterial growth was checked at a wavelength of 600 nm using a Multiskan spectrophotometer (model Multiskan Ex Microplate; Thermo Scientific, Nyon, Switzerland) and MIC or MBC values were determined, comparing cell density with a positive control (bacterial cells grown in LB medium were added with only the vehicle, DMSO). Each experiment was carried out five times, in triplicate. Ampicillin (Sigma Aldrich A9393) was used as the control for strain sensitivity.

[2] = DPPH radical scavenging assay; conditions: 30 min, room temperature, 517 nm
Description: Generally, the DPPH radical is able to accept hydrogen radicals or an electron, turning into a stable molecule. The interaction with Ru-NHC complexes induces the reduction of DPPH radical intensity measured at 517 nm, due to the conversion of the purple DPPH radical into its corresponding yellow hydrazine form.
The radical scavenging properties of Ru-NHC complexes on the 1,1-diphenyl-2-picryl-hydrazil (DPPH) radical were evaluated as described by Fazio et al., with minor corrections. Then, 20 μL of each Ru complex, properly dissolved in DMSO, were mixed with methanol DPPH 0.1 mM (180 μL) in a 48-well plate obtaining […] different concentrations (10, 50, 100, 200 and 300 µg/mL). Next, 20 μL of DMSO in 180 μL of DPPH methanol solution was diluted as the control. The mixture was vigorously shaken and incubated (room temperature, 30 min, in the dark). The scavenging activity was measured at 517 nm, using a microplate reader. DPPH radical scavenging was expressed as inhibition percentages (%IDPPH) for the Ru complexes compared to the initial concentration of DPPH (control) according to the formula: %IDPPH=A0−A/A0×100 where A0 is the absorbance at 517 nm of the control reaction and A is the absorbance at 517 nm in the presence of samples.
The obtained IDPPH percentages allowed the IC50 values determination, using GraphPad Prism 9 software (GraphPad Inc., San Diego, CA, USA). Trolox was employed as a positive control.

[3] = ABTS radical scavenging assay; conditions: for IC50: 5 min, room temperature, 730 nm
Source text: To further analyze the Ru-NHC complexes antiradical potential, we examined their capability to interfere with the ABTS radical cation, a well-known protonated radical with a characteristic maximal absorbance at 730 nm, which diminishes with the scavenging of the radical proton. The assay measures radical scavenging by the electron donation. The outcomes in terms of ABTS% scavenging activity are reported in Figure 7 and IC50 values of Ru-NHC complexes, together with the standard Trolox, on ABTS radical are summarized in Table 3 and Table S3.
The radical scavenging properties of the Ru-NHC complexes on a 2,2′-azino-bis(3-ethylbenzothiazoline-6-sulfonate) radical cation (ABTS^•+) were calculated as described by Fazio et al., with few adjustments. Briefly, 2 mM ABTS and 70 mM potassium persulfate water solutions were mixed and incubated to obtain ABTS^•+ radical stock solution (16 h, room temperature, in the dark). ABTS solution was diluted in ethanol to obtain an absorbance of 0.70 ± 0.02 at 730 nm, prior to use. Then, 2 μL of each Ru-NHC complex at different concentrations, properly dissolved in DMSO, were mixed with 198 μL of the ABTS^•+ solution in a 48-well plate obtaining the following concentrations: 0.1, 1, 10, 50, and 100 µg/mL. The solutions were vigorously shaken and incubated (5 min, room temperature, in the dark). The ABTS scavenging activity was determined at 730 nm, using a microplate reader. The control was prepared mixing 2 μL of DMSO with 198 μL of the ABTS^•+ solution. The ABTS radical scavenging was expressed as inhibition percentages (%IABTS) of each complex compared to the control, according to the formula: %IABTS=A0−A/A0×100 where A0 is the absorbance at 730 nm of the control reaction and A is the absorbance at 730 nm in the presence of samples.
IC50 values for the Ru complexes were calculated from the %IABTS using GraphPad Prism 9 software (GraphPad Inc., San Diego, CA, USA). Trolox was employed as the positive control.

COC(Cn1ccn(C)[c]1=[Ru]([Cl])[Cl])c1ccccc1.Cc1ccc(C(C)C)cc1 (stereo not shown) [RANHC-I]
IC50 (MCF-7 cells): > 100 µM | M.I.C. S. aureus [1]: 25 µg/mL | IC50 [2]: 369.6 ± 1.1 µM | IC50 [3]: 13.5 ± 0.7 µM

COC(Cn1[c](=[Ru]([Cl])[Cl])n(C)c2ccccc21)c1ccccc1.Cc1ccc(C(C)C)cc1 (stereo not shown) [RANHC-VI]
IC50 (MCF-7 cells): 54.8 ± 1.1 µM | M.I.C. S. aureus [1]: 25 µg/mL | IC50 [2]: 161.6 ± 1 µM | IC50 [3]: 17.2 ± 1.1 µM

COC(Cn1c(Cl)c(Cl)n(C)[c]1=[Ru]([Cl])[Cl])c1ccccc1.Cc1ccc(C(C)C)cc1 (stereo not shown) [RANHC-V]
IC50 (MCF-7 cells): 26.1 ± 0.9 µM | M.I.C. S. aureus [1]: 25 µg/mL | IC50 [2]: 246.2 ± 1.2 µM | IC50 [3]: 11.4 ± 0.8 µM

COC(Cn1ccn(C)[c]1=[Ru]1[O]C(=O)C(=O)[O]1)c1ccccc1.Cc1ccc(C(C)C)cc1 (stereo not shown) [RANHC-IV]
IC50 (MCF-7 cells): > 100 µM | M.I.C. S. aureus [1]: 25 µg/mL | IC50 [2]: 512.3 ± 0.8 µM | IC50 [3]: 8.57 ± 1.1 µM

CN1C=CN2CC(c3ccccc3)[O+](C)[Ru]([Cl])=[C]12.Cc1ccc(C(C)C)cc1.F[P-](F)(F)(F)(F)F (stereo not shown) [RANHC-III]
IC50 (MCF-7 cells): > 100 µM | M.I.C. S. aureus [1]: 25 µg/mL | IC50 [2]: 44.2 ± 1.2 µM | IC50 [3]: 5.53 ± 1.1 µM | ABTS IC50 fold lower than that of Trolox ([3]; IC50 ratio to Trolox): about 17 fold

COC(Cn1ccn(C)[c]1=[Ru]([I])[I])c1ccccc1.Cc1ccc(C(C)C)cc1 (stereo not shown) [RANHC-II]
IC50 (MCF-7 cells): > 100 µM | M.I.C. S. aureus [1]: 25 µg/mL | IC50 [2]: 214.8 ± 1.1 µM | IC50 [3]: 16.1 ± 0.7 µM
